Laboratory results reported in PMC6685981, “Avenanthramide A triggers potent ROS-mediated anti-tumor effects in colorectal cancer by directly targeting DDX3” (Cell Death & Disease, 2019).

Target: T1, DDX3 (Homo sapiens, UniProt O00571)
T1 construct: gene DDX3X; full length, His-tagged DDX3
Assay: SPR (Biacore T200) with immobilized purified His-DDX3; also malachite green ATPase inhibition at […]
Type: binding

T1 sequence (O00571 whole entry): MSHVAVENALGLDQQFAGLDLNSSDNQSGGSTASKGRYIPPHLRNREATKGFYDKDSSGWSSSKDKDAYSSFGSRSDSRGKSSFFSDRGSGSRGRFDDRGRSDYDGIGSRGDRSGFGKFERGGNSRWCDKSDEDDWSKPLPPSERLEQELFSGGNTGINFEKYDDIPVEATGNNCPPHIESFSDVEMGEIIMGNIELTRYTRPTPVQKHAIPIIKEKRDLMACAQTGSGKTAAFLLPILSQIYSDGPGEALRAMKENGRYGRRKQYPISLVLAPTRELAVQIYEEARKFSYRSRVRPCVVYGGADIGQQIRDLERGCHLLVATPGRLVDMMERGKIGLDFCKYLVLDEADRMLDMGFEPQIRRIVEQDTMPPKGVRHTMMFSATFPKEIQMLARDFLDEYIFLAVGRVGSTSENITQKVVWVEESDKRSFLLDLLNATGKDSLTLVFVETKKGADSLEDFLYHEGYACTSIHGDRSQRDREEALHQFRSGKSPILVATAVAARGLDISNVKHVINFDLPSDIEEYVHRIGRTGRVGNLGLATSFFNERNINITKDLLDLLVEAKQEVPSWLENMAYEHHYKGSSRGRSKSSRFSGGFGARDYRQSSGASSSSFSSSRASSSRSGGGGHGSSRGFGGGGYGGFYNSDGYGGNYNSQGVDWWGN

Kd: 8.8 µM
SMILES: O=C(/C=C/c1ccc(O)cc1)Nc1ccc(O)cc1C(=O)O [AVN A, Avenanthramide A]
